Measured values taken from patent publication US9512065B2, “Polymorphs of N-[(R)-1-[(S)-1-(4-aminomethyl-benzylcarbamoyl)-2-phenyl-ethylcarbamoyl]-2-(4-ethoxy-phenyl)-ethyl]-benzamide hydrochloride” (Kalvista Pharmaceuticals Limited, priority 2012, dated 2016).
Where a name gives a salt, the structure may show the parent alone.

Key:
Factor XIIa = Factor XIIa (Homo sapiens (Human), UniProt P00748); assay: Determination of enzyme selectivity: Factor XIIa; type: biochemical; conditions: substrate at Km concentration
Sequence of Factor XIIa (P00748 373-615): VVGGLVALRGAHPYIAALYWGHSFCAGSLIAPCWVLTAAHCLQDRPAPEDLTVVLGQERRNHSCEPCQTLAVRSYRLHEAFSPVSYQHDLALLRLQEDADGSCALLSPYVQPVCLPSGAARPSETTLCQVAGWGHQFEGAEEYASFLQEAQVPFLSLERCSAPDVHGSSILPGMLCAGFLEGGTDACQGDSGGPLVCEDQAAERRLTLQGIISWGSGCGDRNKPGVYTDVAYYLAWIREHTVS
Description: (§1) Determination of Enzyme Selectivity

Factor Xa = Factor Xa (Homo sapiens (Human), UniProt P00742); assay: Determination of enzyme selectivity: Factor Xa; type: biochemical; conditions: substrate at Km concentration
Sequence of Factor Xa (P00742 235-488): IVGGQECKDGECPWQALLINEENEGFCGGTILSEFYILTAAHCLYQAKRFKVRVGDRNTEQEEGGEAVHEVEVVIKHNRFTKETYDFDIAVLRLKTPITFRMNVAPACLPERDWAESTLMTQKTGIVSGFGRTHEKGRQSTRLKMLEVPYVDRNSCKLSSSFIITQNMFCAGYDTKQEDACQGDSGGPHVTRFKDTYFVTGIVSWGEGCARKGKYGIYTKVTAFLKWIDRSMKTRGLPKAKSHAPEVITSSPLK
Sequence of Factor Xa (P00742 41-179 partner): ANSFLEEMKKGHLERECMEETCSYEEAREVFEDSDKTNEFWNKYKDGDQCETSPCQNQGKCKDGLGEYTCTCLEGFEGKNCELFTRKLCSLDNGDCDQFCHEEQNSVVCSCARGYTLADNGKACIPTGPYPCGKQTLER
Description: as §1

thrombin = thrombin (Homo sapiens (Human), UniProt P00734); assay: Determination of enzyme selectivity: thrombin; type: biochemical; conditions: substrate at Km concentration
Description: as §1

[1] = Ocular and systemic pharmacokinetics following a single IVT dose; type: in vivo, rabbit; conditions: Dutch-belted rabbits
Method: A pharmacokinetic study of N—[(R)-1-[(S)-1-(4-aminomethyl-benzylcarbamoyl)-2-phenyl-ethylcarbamoyl]-2-(4-ethoxy-phenyl)-ethyl]-benzamide hydrochloride was performed to assess the ocular and systemic pharmacokinetics following a single IVT dose in pigmented (Dutch-belted) rabbits. […] Serial blood samples were collected in surviving rabbits.

[2] = system: CA-I stimulated RVP in Sprague Dawley rats; assay: Carbonic anhydrase I induced retinal vascular permeability model; type: in vivo; conditions: rat
Method: Carbonic Anhydrase I Induced Retinal Vascular Permeability Model
After 30 mins, a second intravitreal injection (5 μL) of PBS or CA-I (200 ng/eye) was given. After 15 minutes, 10% sodium fluorescein was infused and retinal vascular permeability (RVP) was measured by vitreous fluorophotometry 75 minutes following the initial IVT injections. […] Intravitreal injection of N—[(R)-1-[(S)-1-(4-amino methyl-benzylcarbamoyl)-2-phenyl-ethylcarbamoyl]-2-(4-ethoxy-phenyl)-ethyl]-benzamide hydrochloride reduced RVP (stimulated by CA-I injection) by 53±21%.

diabetic rats = conditions: cited from earlier work
Human plasma kallikrein = Human plasma kallikrein (Homo sapiens (Human), UniProt P03952); assay: Determination of the Ki for plasma kallikrein; type: biochemical; conditions: 37° C., fluorogenic substrate H-DPro-Phe-Arg-AFC; read-out: Ki (human Pkal)
Sequence of Human plasma kallikrein (P03952 391-638): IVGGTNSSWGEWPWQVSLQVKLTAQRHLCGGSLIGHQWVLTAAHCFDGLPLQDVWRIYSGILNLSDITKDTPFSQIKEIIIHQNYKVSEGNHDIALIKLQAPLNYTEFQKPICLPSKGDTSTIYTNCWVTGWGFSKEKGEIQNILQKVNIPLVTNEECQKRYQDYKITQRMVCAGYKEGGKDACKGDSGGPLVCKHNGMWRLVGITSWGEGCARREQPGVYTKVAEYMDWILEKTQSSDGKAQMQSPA
Sequence of Human plasma kallikrein (P03952 20-390 partner): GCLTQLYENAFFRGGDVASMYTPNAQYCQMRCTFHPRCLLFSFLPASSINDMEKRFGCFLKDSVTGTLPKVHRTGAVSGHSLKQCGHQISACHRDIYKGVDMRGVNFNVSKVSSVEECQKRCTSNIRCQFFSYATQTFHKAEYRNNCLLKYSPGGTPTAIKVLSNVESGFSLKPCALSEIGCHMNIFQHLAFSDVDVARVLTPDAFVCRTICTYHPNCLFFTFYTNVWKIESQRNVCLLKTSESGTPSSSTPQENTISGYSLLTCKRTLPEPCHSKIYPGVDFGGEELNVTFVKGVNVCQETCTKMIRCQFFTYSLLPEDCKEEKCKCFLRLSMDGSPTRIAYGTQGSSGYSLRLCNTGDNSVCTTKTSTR
Method: Determination of the Ki for Plasma Kallikrein
Plasma kallikrein inhibitory activity in vitro was determined using standard published methods (see e.g. Johansen et al., Int. J. Tiss. Reac. 1986, 8, 185; Shori et al., Biochem. Pharmacol., 1992, 43, 1209; Stürzebecher et al., Biol. Chem. Hoppe-Seyler, 1992, 373, 1025). Human plasma kallikrein (Protogen) was incubated at 37° C. with the fluorogenic substrate H-DPro-Phe-Arg-AFC and various concentrations of the test compound. Residual enzyme activity (initial rate of reaction) was determined by measuring the change in […] at 410 nm and the Ki value for the test compound was determined.

[3] = Storage stability at 40° C. and 75% relative humidity for 6 months; type: physicochemical
Description: Further evidence of the suitability of the crystalline forms for pharmaceutical development is provided by the following stability data.

[4] = Gravimetric vapour sorption (GVS); type: physicochemical
Method: Gravimetric Vapour Sorption
Sorption isotherms were obtained using a Hiden Isochema moisture sorption analyser (model IGAsorp), controlled by IGAsorp Systems Software V6.50.48. The sample was maintained at a constant temperature (25° C.) by the instrument controls. The humidity was controlled by mixing streams of dry and wet nitrogen, with a total flow of 250 ml·min-1. The instrument was verified for relative humidity content by measuring three calibrated Rotronic salt solutions (10-50-88%). The weight change of the sample was monitored as a function of humidity by a microbalance (accuracy +/−0.005 mg). A defined amount of sample was placed in a tared mesh stainless steel basket under ambient conditions. A full experimental cycle consisted of three scans (sorption, desorption and sorption) at a constant temperature (25° C.) and 10% RH intervals over a 0-90% range (60 minutes for each humidity level).

Human KLK1 = Human KLK1 (Homo sapiens (Human), UniProt P06870); assay: Determination of the IC50 for KLK1; type: biochemical; conditions: 37° C., fluorogenic substrate H-DVal-Leu-Arg-AFC
Sequence of Human KLK1 (P06870 25-262): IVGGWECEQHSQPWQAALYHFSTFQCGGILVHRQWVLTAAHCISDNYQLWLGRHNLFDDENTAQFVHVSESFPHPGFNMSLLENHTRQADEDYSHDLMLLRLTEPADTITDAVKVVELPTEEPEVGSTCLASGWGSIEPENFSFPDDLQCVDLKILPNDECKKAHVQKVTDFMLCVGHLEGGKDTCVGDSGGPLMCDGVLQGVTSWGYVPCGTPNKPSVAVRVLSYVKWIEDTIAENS
Method: Determination of the IC50 for KLK1
Human KLK1 (Callbiochem) was incubated at 37° C. with the fluorogenic substrate H-DVal-Leu-Arg-AFC and various concentrations of the test compound. Residual enzyme activity (initial rate of reaction) was determined by measuring the change in optical absorbance at 410 nm and the IC50 value for the test compound was determined.

In the case of `CCOc1ccc(C[C@@H](NC(=O)c2ccccc2)C(=O)N[C@@H](Cc2ccccc2)C(=O)NCc2ccc(CN)cc2)cc1` [N—[(R)-1-[(S)-1-(4-aminomethyl-benzylcarbamoyl)-2-phenyl-ethylcarbamoyl]-2-(4-ethoxy-phenyl)-ethyl]-benzamide hydrochloride], the IC50 (Factor XIIa) is reported as > 10 µM, the IC50 (Factor Xa) is reported as > 10 µM and the IC50 (thrombin) is reported as > 40 µM. For the same compound, the “decline in ocular tissue concentrations” value ([1]; single IVT 210 ng per eye, vitreous, retina/choroid, aqueous humour, over 7 days) was “minimal”, the “plasma concentrations following IVT administration” value ([1]; single bilateral IVT 210 ng per eye, all time points) was “below 1 ng/mL” and the “reduction of RVP stimulated by CA-I injection” value ([2]; intravitreal injection 5 μL of 1 μM, CA-I 200 ng/eye after 30 mins) was 53±21%. For the same compound, the “basal RVP” value ([2]; intravitreal injection of 1 μM alone (no CA-I), no effect compared to PBS alone, vitreous fluorophotometry at 75 minutes) was 3.29±0.21.

In the case of `N=C(N)c1ccc(CNC(=O)c2cnn(Cc3ccccc3)c2)cc1` [ASP-440], the “retinal vascular permeability and retinal blood flow abnormalities” value (diabetic rats) is listed as “ameliorated”.

With `CCOc1ccc(C[C@@H](NC(=O)c2ccccc2)C(=O)N[C@@H](Cc2ccccc2)C(=O)NCc2ccc(CN)cc2)cc1` [Form 1, N—[(R)-1-[(S)-1-(4-aminomethyl-benzylcarbamoyl)-2-phenyl-ethylcarbamoyl]-2-(4-ethoxy-phenyl)-ethyl]-benzamide hydrochloride] the Ki (Human plasma kallikrein) was 0.01 µM, the “chemical degradation on storage” value ([3]; 6 months) was “no significant chemical degradation” and the “purity (HPLC) on storage” value ([3]; 6 months) was 99.8 % area. For the same compound, the “change to the XRPD diffractogram on storage” value ([3]; 6 months, double polyethylene bags in polypropylene container) was “no change”, the “water content (Karl Fischer) on storage” value ([3]; after one month and thereafter up to 6 months) was 2.5%-2.8% and the “hydration (GVS)” value ([4]; 25° C., sorption, desorption and sorption, 0-90% RH) was “reversible”. For the same compound, the hygroscopicity ([4]; GVS data) was “absence of significant hygroscopicity”, the “increase in water content (GVS)” value ([4]; normal conditions, 20% to 80% relative humidity) was “only a relatively gradual increase” and the IC50 (Human KLK1) was > 10 µM.
